One experiment has as its system Nox4. Kind of experiment: H2O2-generating activity of lysed COS-Nox4 cells (Amplex Red fluorescence). The following applies: for effect on Nox4 activity (H2O2 production): COS-Nox4 cell lysate preincubated with various concentrations of C-terminal tail peptide for 15 min at 24°C, mean of 3 experiments (Figure 2(b)); for inhibition of H2O2 production (Nox4 activity): COS-Nox4 cell lysate preincubated with peptide 1 to 50 μM for 15 min at 24°C, mean of 3 experiments (Figure 1(f)); for inhibition of Nox4 activity (Nox4-derived H2O2 production): COS-Nox4 cell lysate preincubated with various concentrations of p22phox N-terminal peptide for 15 min at 24°C, mean of 3 experiments (Figure 3(b),(c)). The class given is biochemical, human. The method, then: Cell transfection was carried out using Lipofectamine LTX and Plus reagent (Invitrogen, Carlsbad, CA, USA), according to the manufacturer's instructions. COS-22 cells were transiently transfected with pcDNA3.1/Hygro-hNox4 (COS-Nox4 cells). Western blot experiments were performed to validate the expression of Nox4 as we reported previously. Twenty-four hours after transfection, cells were harvested by incubating with 0.05% trypsin/EDTA for 5 min at 37°C. Following addition of DMEM/10% FBS to neutralize the trypsin, the cells were pelleted by centrifugation at 1000 ×g for 5 min at 4°C and used for the experiments.
H2O2 production was quantified in lysed COS-Nox4 cells as described previously. […] COS-Nox4 and COS-22 cells were suspended to a concentration of 5 × 10^7 cells/mL in ice-cold disruption buffer (PBS containing 0.1 mM EDTA, 10% glycerol, protease inhibitor cocktail, and 0.1 mM PMSF). The cells were lysed by five freeze/thaw cycles and passed through a 30-gauge needle five times to further lyse the cells. Throughout all these procedures, extreme care was taken to maintain the lysate at a temperature close to 0°C. Incubation of COS-Nox4 cell lysate (10 μg/100 μL) with peptides was performed in assay buffer (25 mM Hepes, pH 7.4, containing 120 mM NaCl, 3 mM KCl, 1 mM MgCl2, 25 μM FAD, 0.1 mM Amplex Red, and 0.32 U/mL of HRP) for 15 or 60 min at room temperature on an orbital shaker (120 movements/min), before the addition of 36 μM NADPH, to initiate H2O2 production. […] Fluorescence measurements were made using a Biotek Synergy 4 Hybrid Multi-Mode Microplate Reader (excitation wavelength: 560 nm; emission wavelength: 590 nm). A standard curve of known H2O2 concentrations was developed using the Amplex Red assay (as per the manufacturer's instructions) and was used to quantify H2O2 production in lysed COS-Nox4 cells. The reaction was monitored at room temperature for 40 min. The emission increase was linear during this interval. The rate of H2O2 production was interpolated from the standard curve and is […] nmol H2O2/min/mg protein. The effect of a peptide on Nox4-derived H2O2 production was expressed as percent inhibition of Nox4, which was calculated by considering H2O2 production by control mixtures in the absence of peptide as 100%.

A further experiment concerns Nox2. The following applies: ref [8]; cited from earlier work. The text has this:
With this in mind, in the current study, we tested whether application of a peptide mimic (B90–98) from the variable region of Nox4 B-loop interferes with the activity of Nox4. An important premise for this work was ...

Turning to “C555–562: octameric Nox4 C-terminal tail peptide, residues 555–562 (TLHKLSNQ; UniProt Q9NPH5 555-562, looked up, fragment)”, the “effect on Nox4 activity (H2O2 production)” value (from here on “effect on Nox4 activity”) with Nox4 (Amplex Red) is listed as “did not affect”. On to “B90–98: nonamer peptide mimic from the variable region of Nox4 B-loop, residues 90–98 (PSRRTRRLL; UniProt Q9NPH5 90-98, looked up, fragment)”, for which the “inhibition of Nox4-derived H2O2 production” value in the experiment on Nox4 (COS-Nox4 cell lysate preincubated with peptide 0.1-100 μM for 15 min at 24°C, 36 μM NADPH, Amplex Red, mean of 3 experiments (Figure 1(d))) was “did not inhibit”. For “Nox2ds: peptide mimicking the B-loop region of Nox2 (amino acids 86–94), earlier work of the authors (CSTRVRRQL; UniProt P04839 86-94, looked up, fragment)”, the “inhibition of Nox2-derived O2•− production” value with Nox2 was “selectively and potently inhibits”. On to “C560–567: octameric Nox4 C-terminal tail peptide, residues 560–567 (SNQNNSYG; UniProt Q9NPH5 560-567, looked up, fragment)”, for which the “effect on Nox4 activity” value in the experiment on Nox4 (Amplex Red) is “did not affect”. As to “PSRRTRELL [R96E mutant version of B90–98, R96E mutant version of B90–98 (…)]”, the “inhibition of Nox4 activity (H2O2 production)” value in the experiment with Nox4 (COS-Nox4 cell lysate preincubated with peptide 0.3 to 30 μM for 15 min at 24°C, Amplex Red, mean of 3 experiments (Figure 1(e))) was “did not inhibit”. “B77–91: 15-mer peptide from the Nox4 B-loop, residues 77–91 (RTLLAYLRGSQKVPS; UniProt Q9NPH5 77-91, looked up, fragment)”: the “inhibition of H2O2 production (Nox4 activity)” value (“inhibition of H2O2 production” for short) in the experiment with Nox4 (Amplex Red) is listed as “did not inhibit”. As for `c1ccc2c(c1)[I+]c1ccccc1-2` [DPI, diphenyleneiodonium chloride, reference compound], the “inhibition of Nox4-dependent activity (rate of H2O2 generation)” value in the experiment with Nox4 (COS-Nox4 cell lysate, DPI 50 μM, 36 μM NADPH, Amplex Red/HRP, monitored at 24°C for 40 min, mean of 3 experiments) is recorded as ~ 90%. For the molecule “C570–578: nonameric Nox4 C-terminal tail peptide, residues 570–578 (FEYNKESFS; UniProt Q9NPH5 570-578, looked up, fragment)”, in the experiment on Nox4 (Amplex Red), the “effect on Nox4 activity” value is given as “did not affect”. On to WAMWAN [p22 WT 6–11], for which the “inhibition of Nox4 activity (Nox4-derived H2O2 production)” value in the experiment with Nox4 (Amplex Red) was “did not inhibit”. Consider “B92–106: 15-mer peptide from the Nox4 B-loop, residues 92–106 (RRTRRLLDKSRTFHI; UniProt Q9NPH5 92-106, looked up, fragment)”, for which the “inhibition of H2O2 production” value in the experiment with Nox4 (Amplex Red) is recorded as “did not inhibit”. As for “B82–96: 15-mer peptide from the Nox4 B-loop, residues 82–96 (YLRGSQKVPSRRTRR; UniProt Q9NPH5 82-96, looked up, fragment)”, the “inhibition of H2O2 production” value in the experiment with Nox4 (Amplex Red) was “did not inhibit”. Turning to “RAMRAN [p22 W6/9R, p22phox 6–11 peptide with tryptophans mutated to arginine (RAMRAN)]”, in the experiment on Nox4 (Amplex Red), the “inhibition of Nox4 activity (Nox4-derived H2O2 production)” value is “did not inhibit”.

With “C565–572: octameric Nox4 C-terminal tail peptide, residues 565–572 (SYGTRFEY; UniProt Q9NPH5 565-572, looked up, fragment)”, the “effect on Nox4 activity” value in the experiment with Nox4 (Amplex Red) is given as “did not affect”.

Values taken from PMC3626398, “Strategies Aimed at Nox4 Oxidase Inhibition Employing Peptides from Nox4 B-Loop and C-Terminus and p22^phox N-Terminus: An Elusive Target” (International Journal of Hypertension, 2013).
